Measured values: publication PMC6479714, “Multiplex Analysis Platform for Endocrine Disruption Prediction Using Zebrafish” (International Journal of Molecular Sciences, 2019)
Where two headings read alike, the source gives them in different places.

Assays:
[1] = system: brain aromatase (cyp19a1b); test: cyp19a1b gene expression (qPCR) in exposed zebrafish embryos; type: in vivo, zebrafish (Danio rerio)
[2] = system: vtg - blood; settings: cited from earlier work; for LogEC50 (vtg - blood): log of EC50 in μM
[3] = system: vtg - blood; settings: 8 days (adults), cited from earlier work
[4] = system: cyp19a1b - mRNA; settings: cited from earlier work
[5] = system: cyp19a1b - fluorescence; settings: 0-96 h, cited from earlier work; for LogEC50 (cyp19a1b - fluorescence): log of EC50 in μM
[6] = system: cyp19a1b - mRNA; settings: 14 days (adults), cited from earlier work
[7] = system: vtg - blood; settings: 21 days (adults), cited from earlier work; for EC50: read-out: EC50 (vtg - blood); for LogEC50 (vtg - blood): log of EC50 in μM
[8] = system: vtg1 - fluorescence; settings: 21 days (adults), cited from earlier work
[9] = system: vtg1 - mRNA; settings: cited from earlier work
[10] = system: aromatase (cyp19a1); test: cyp19a gene expression (qPCR) in exposed zebrafish embryos; type: in vivo, zebrafish (Danio rerio); settings: exposed 48–120 hpf; Figure S1
[11] = system: cyp19a1b - mRNA; settings: cited from earlier work; for LogEC50 (cyp19a1b - mRNA): log of EC50 in μM
[12] = system: vitellogenin 1 (vtg1); test: vtg1 gene expression (qPCR) in exposed zebrafish embryos; settings: for EC50: Danio rerio, read-out: EC50 vtg1; for LogEC50 (vtg1 mRNA): log of EC50 in μM, 48-120 h, our study
[13] = system: cyp19a1b - vtg1 mRNA; test: estrogenic markers considered together (cyp19a1b - vtg1 mRNA), zebrafish embryos; settings: Danio rerio, read-out: EC50 (cyp19a1b - vtg1 mRNA), class symbol
[14] = system: thyroid peroxidase (tpo); test: tpo gene expression (qPCR) in exposed zebrafish embryos; type: in vivo, zebrafish (Danio rerio); settings: for EC50: Danio rerio
[15] = system: carp hepatocytes; set-up: method as in PMID 10478856; settings: concentrations up to 100 µM; cited from earlier work
[16] = system: dio2 - mRNA; set-up: method as in earlier work; settings: 0-120 h, ref [33] (supplement list), cited from earlier work
[17] = system: iodothyronine deiodinase 2 (dio2); test: dio2 gene expression (qPCR) in exposed zebrafish embryos; type: in vivo, zebrafish (Danio rerio); settings: for EC50: Danio rerio
[18] = acute toxicity test from 48–120 hpf based on the OECD FET test; type: in vivo, zebrafish (Danio rerio); settings: in vivo; zebrafish embryos exposed 48–120 hpf
Source text: Twenty embryos per treatment were exposed to 5 concentrations of compound of interest in a 10× dilution factor from 48–120 hpf, which is the experimental time in which EDCs will be screened posteriorly. Embryos were exposed from 48–120 hpf rather than 0–96 hpf or 0–120 hpf to avoid unspecific toxicity outside of the EDC testing period, which have been chosen on the basis that endocrine pathways, e.g., thyroid metabolism, are not fully functional until 40–55 hpf in zebrafish embryos. Stock solutions of chemicals to be tested were freshly prepared in exposure medium. The highest concentration for each compound was selected according to its water solubility (Table S1). Exposures were performed in glass vessels to assure maximum bioavailability for hydrophobic compounds, and medium was not exchanged during the experiment.

[19] = system: transthyretin (ttr); test: ttr gene expression (qPCR) in exposed zebrafish embryos; type: in vivo, zebrafish (Danio rerio); settings: for EC50: Danio rerio
[20] = system: thyroid receptor α (trα); test: trα gene expression (qPCR) in exposed zebrafish embryos; type: in vivo, zebrafish (Danio rerio); settings: exposed 48–120 hpf
[21] = system: pax8; test: pax8 gene expression (qPCR) in exposed zebrafish embryos; type: in vivo, zebrafish (Danio rerio); settings: exposed 48–120 hpf
[22] = system: iodothyronine deiodinase 1 (dio1); test: dio1 gene expression (qPCR) in exposed zebrafish embryos; type: in vivo; settings: Danio rerio; exposed 48–120 hpf; Figure 4; no unit printed for this gene
[23] = E2 1 µM alone, rescue experiment
[24] = log of EC50 in μM, 48-120 h, our study
[25] = ref [3] (supplement list: Brion 2012)
[26] = exogenous T3, 48–120 hpf, downregulated

In the case of `C[C@]12CC[C@@H]3c4ccc(O)cc4CC[C@H]3[C@@H]1CC[C@@H]2O` [E2, 17β-estradiol], the EC50 ([1]; Danio rerio, zebrafish embryos exposed 48–120 hpf, mRNA by qPCR) is reported as 90 nM, the “FI cyp19a1b, single exposure” value [1, 23] is reported as 64.54 and the “LogEC50 (cyp19a1b mRNA)” value [1, 24] is reported as -1.046. For the same compound, the EC50 ([2]; 14 days (adults), ref [14] (supplement list: Brian 2005)) was 0.09 nM, the EC50 ([2]; 24 days (adults), ref [13] (supplement list: Van den Belt 2004)) was 0.6 nM and the “LogEC50 (vtg - blood)” value ([2]; 14 days (adults), ref [14] (supplement list)) was -4.046. For the same compound, the “LogEC50 (vtg - blood)” value ([2]; 24 days (adults), ref [13] (supplement list)) was -3.222, the EC50 ([3]; ref [12] (supplement list: Rose 2002)) was 0.2 nM and the “LogEC50 (vtg - blood)” value ([3]; log of EC50 in μM, ref [12] (supplement list)) was -3.699. For the same compound, the “EC50 (cyp19a1b - mRNA), class symbol” value ([4]; 7 days (adults), ref [7] (supplement list: Hinfray 2006)) was “n.e”, the “EC50 (cyp19a1b - mRNA), class symbol” value ([4]; 21 days (adults), ref [8] (supplement list: Kallivretaki 2006)) was “n.e” and the EC50 ([5]; ref [2] (supplement list: Petersen 2013)) was 3.4 nM. For the same compound, the EC50 [5, 25] was 2.4 nM, the “LogEC50 (cyp19a1b - fluorescence)” value ([5]; ref [2] (supplement list)) was -2.469 and the “LogEC50 (cyp19a1b - fluorescence)” value ([5]; ref [3] (supplement list)) was -2.62. For the same compound, the EC50 ([6]; effects only detected in males, ref [9] (supplement list: Halm 2002)) was 0.4 nM, the “LogEC50 (cyp19a1b - mRNA)” value ([6]; log of EC50 in μM, males, ref [9] (supplement list)) was -3.398 and the EC50 ([7]; * mean of an approximate range, ref [16] (supplement list: Parks 1999)) was about 0.6 nM. The EC50 ([7]; ref [15] (supplement list: Dammann 2011)) was 0.09 nM, the “LogEC50 (vtg - blood)” value ([7]; ref [15] (supplement list)) was -4.046 and the “LogEC50 (vtg - blood)” value ([7]; ref [16] (supplement list)) was -3.222. For the same compound, the EC50 ([8]; ref [17] (supplement list: Zeng 2005)) was about 0.55 nM, the “LogEC50 (vtg1 - fluorescence)” value ([8]; log of EC50 in μM, ref [17] (supplement list)) was -3.26 and the EC50 ([9]; 0-120 h, * mean of an approximate range, ref [11] (supplement list: Muncke 2006), read-out: EC50 (vtg1 - mRNA)) was about 30 nM. The EC50 ([9]; 0-168 h, * mean of an approximate range, ref [10] (supplement list: Chen 2018), read-out: EC50 (vtg1 - mRNA)) was about 180 nM, the “LogEC50 (vtg1 - mRNA)” value ([9]; log of EC50 in μM, 0-120 h, ref [11] (supplement list)) was -1.523 and the “LogEC50 (vtg1 - mRNA)” value ([9]; log of EC50 in μM, 0-168 h, ref [10] (supplement list)) was -0.757. The “response of cyp19a” value [10] was “no response”, the EC50 ([11]; 0-72 h, * mean of an approximate range, ref [4] (supplement list: Lassiter 2007)) was about 10 nM and the EC50 ([11]; 0-96 h, ref [3] (supplement list: Brion 2012)) was 4.1 nM. The EC50 ([11]; 2-48 h, * mean of an approximate range, ref [6] (supplement list: Kishida 2001)) was about 10 nM, the EC50 ([11]; 72-96 h, * mean of an approximate range, ref [5] (supplement list: Chung 2011)) was about 5.5 nM and the “LogEC50 (cyp19a1b - mRNA)” value ([11]; 0-72 h, ref [4] (supplement list)) was -2. The “LogEC50 (cyp19a1b - mRNA)” value ([11]; 0-96 h, ref [3] (supplement list)) was -2.387, the “LogEC50 (cyp19a1b - mRNA)” value ([11]; 2-48 h, ref [6] (supplement list)) was -2 and the “LogEC50 (cyp19a1b - mRNA)” value ([11]; 72-96 h, ref [5] (supplement list)) was -2.26. For the same compound, the EC50 [12] was 190 nM, the “FI vtg1, single exposure” value [12, 23] was 394.39 and the “LogEC50 (vtg1 mRNA)” value [12] was -0.7212.

For `O=S1OCC2C(CO1)C1(Cl)C(Cl)=C(Cl)C2(Cl)C1(Cl)Cl` (stereo not drawn) [END, endosulfan], the “effect on expression of cyp19a1b” value ([1]; exposed 48–120 hpf) is listed as “not affecting expression”, the “EC50 (cyp19a1b - fluorescence), class symbol” value [5, 25] is listed as “n.e” and the EC50 [13] is listed as over 4000 nM. The EC50 ([9]; 6-96 h, ref [25] (supplement list: Moon 2016), read-out: EC50 (vtg mRNA)) was 1960 nM, the “LogEC50 (vtg mRNA)” value ([9]; log of EC50 in μM, 6-96 h, ref [25] (supplement list)) was 0.2923 and the “FI vtg1 at the most effective concentration” value ([12]; 4 µM, compared to controls, downregulation) was 0.35. For the same compound, the EC50 [12] was 330 nM, the “LogEC50 (vtg1 mRNA)” value [12] was -0.4815 and the “downregulation of vtg1 expression compared to controls” value ([12]; most effective concentration (4 µM)) was “more than 50%”. The EC50 ([14]; read-out: EC50 tpo) was 60 nM and the “induction of vitellogenesis in carp hepatocytes” value [15] was “not able to induce vitellogenesis”.

In the case of `CCCCC(O)(Cn1cncn1)c1ccc(Cl)cc1Cl` (stereo not drawn) [HEX, hexaconazole], the EC50 ([16]; * mean of an approximate range) is listed as about 3980 nM, the “LogEC50 (dio2 - mRNA)” value ([16]; log of EC50 in μM) is listed as 0.5999 and the EC50 ([17]; zebrafish embryos exposed 48–120 hpf, mRNA by qPCR, read-out: EC50 dio2) is listed as 2220 nM. The “LogEC50 (dio2 - mRNA)” value [17, 24] was 0.3464, the LC50 [18] was 23400 nM and the “effect on ttr expression” value ([19]; exposed 48–120 hpf) was “remained unaltered”. For the same compound, the “effect on trα expression” value [20] was “remained unaltered”.

`N[C@@H](Cc1cc(I)c(Oc2ccc(O)c(I)c2)c(I)c1)C(=O)O` [T3, 3,3′,5-triiodo-L-thyronine] gave an EC50 ([17]; read-out: EC50 dio2, exposed 48–120 hpf, Figure 4, downregulated) of 0.28 nM, an EC50 ([17]; read-out: EC50 dio2, exposure 0–96 hpf, Figure 1, comparison of exposure windows, 0–96 hpf) of 6.81 nM and an EC50 ([17]; read-out: EC50 dio2, exposure 48–120 hpf, Figure 1, comparison of exposure windows, 48–120 hpf) of 1.23 nM. For the same compound, the EC50 ([17]; read-out: EC50 dio2, zebrafish embryos exposed 48–120 hpf, mRNA by qPCR) was 0.3 nM, the “FI dio2” value [17, 26] was 0.26 and the “response of pax8” value [21] was “lack of response”. It also gave an EC50 [22] of 3.58 nM, an LC50 [18] of 6000 nM and an EC50 ([19]; read-out: EC50 ttr, exposed 48–120 hpf, Figure 4, downregulated) of 0.31 nM. For the same compound, the EC50 ([19]; read-out: EC50 ttr, exposure 0–96 hpf, Figure 1, comparison of exposure windows, 0–96 hpf) was 0.49 nM, the EC50 ([19]; read-out: EC50 ttr, exposure 48–120 hpf, Figure 1, comparison of exposure windows, 48–120 hpf) was 0.32 nM and the EC50 ([19]; read-out: EC50 ttr, zebrafish embryos exposed 48–120 hpf, mRNA by qPCR) was 0.3 nM. It also gave an FI ttr [19, 26] of 0.49, an EC50 ([14]; read-out: EC50 tpo, exposed 48–120 hpf, Figure 4, upregulated) of 9.93 nM and an EC50 ([14]; read-out: EC50 tpo, exposure 48–120 hpf, Figure 1, comparison of exposure windows, 48–120 hpf) of 4.09 nM. For the same compound, the EC50 ([14]; read-out: EC50 tpo, zebrafish embryos exposed 48–120 hpf, mRNA by qPCR) was 10 nM, the “effect on tpo expression, exposure 0–96 hpf” value ([14]; embryos exposed from 0–96 hpf) was “slight decrease” and the FI tpo ([14]; exogenous T3, 48–120 hpf, upregulated) was 4.11.
